Source: publication PMC8116058, “De novo macrocyclic peptides dissect energy coupling of a heterodimeric ABC transporter by multimode allosteric inhibition” (eLife, 2021)
Positions of bridges follow the written chain, without caps; N, C: chain ends. Non-standard residues stand in square brackets, D forms with d. Residues, ends and D or L forms follow the SMILES beside them. *: point of attachment. 5FAM = O=C1OC2(c3ccc(O)cc3Oc3cc(O)ccc32)c2ccc(C(=O)*)cc21; βAla = NCCC(=O)O

Target: outward-facing TmrA^EQB trapped with Mg-ATP (Thermus thermophilus, UniProt Q72J04+Q72J05, E523Q)
Experiment: Conformation-specific binding by fluorescence anisotropy, OF conformer
Conditions: fluorescence polarization, IF TmrAB vs ATP-trapped OF TmrA^EQB
From the text: ABC transport complexes such as TmrAB run through multiple conformational states along the ATP hydrolysis cycle to drive unidirectional substrate transport ([Hofmann et al., 2019]; [Stefan et al., 2020]). Within the substrate translocation cycle, two major conformers, inward-facing (IF) and outward-facing (OF), were identified. To investigate whether CPs favor one of these conformers, we probed the binding of CP^Fs by fluorescence polarization analysis. […] In the latter case, the interaction studies were performed immediately after the IF-to-OF switch by incubation with ATP for 5 min at 45°C. To exclude an OF-to-IF return (τ1/2 of 25 min) ([Stefan et al., 2020]), the fluorescence anisotropy was recorded only within the first minute of incubation.
Figure 5. […] Immediately after, the fluorescence anisotropy was assayed at λex/em = 485/520 nm. The difference in fluorescence polarization was normalized to free and fully bound CP^F. Data were fitted by a one-site binding model. […] Occluded nucleotides were analyzed by thin layer chromatography and autoradiography. […] (D) Stably occluded nucleotides, [α^32P]-ATP and [α^32P]-ADP, were quantified by autoradiography. […] The difference in fluorescence polarization was normalized to unbound (0%) and 100% bound CP^F. Data were fitted by a one-site binding model. Fluorescence anisotropy was recorded at λex/em = 485/520 nm. […]

| Compound | Conformational preference of binding, IF vs OF |
| --- | --- |
| CC[C@H](C)[C@@H]1NC(=O)[C@H](Cc2c[nH]c3ccccc23)NC(=O)[C@H](CC(N)=O)NC(=O)[C@H](C)NC(=O)[C@H](CO)NC(=O)[C@@H]2CCCN2C(=O)[C@H](CC(=O)O)NC(=O)[C@@H](Cc2ccc(O)cc2)NC(=O)CSC[C@@H](C(=O)NCC(=O)N[C@@H](CO)C(=O)NCCC(=O)NCCC(=O)N[C@@H](CCCNC(=N)N)C(=O)N[C@@H](CCCCNC(=O)c2ccc3c(c2)C(=O)OC32c3ccc(O)cc3Oc3cc(O)ccc32)C(N)=O)NC(=O)[C@H]([C@@H](C)O)NC(=O)[C@H](CC(C)C)NC(=O)[C@H](CC(C)C)NC(=O)[C@H](C(C)C)NC(=O)[C@H](CC(C)C)NC1=O [CP13] ({CH2CO}-[dY]DPSANWILVLLTCGS[βAla][βAla]RK(5FAM)-NH2; thioether N-14; C-terminus assumed) | preference for the OF conformer |
| CC(C)[C@@H]1NC(=O)[C@H](Cc2ccccc2)NC(=O)[C@@H]2CCCN2C(=O)[C@H](CC(N)=O)NC(=O)[C@H](Cc2c[nH]c3ccccc23)NC(=O)[C@H](C(C)C)NC(=O)[C@H](Cc2ccc(O)cc2)NC(=O)[C@H](Cc2ccccc2)NC(=O)[C@@H](Cc2ccc(O)cc2)NC(=O)CSC[C@@H](C(=O)NCC(=O)N[C@@H](CO)C(=O)NCCC(=O)NCCC(=O)N[C@@H](CCCNC(=N)N)C(=O)N[C@@H](CCCCNC(=O)c2ccc3c(c2)C(=O)OC32c3ccc(O)cc3Oc3cc(O)ccc32)C(N)=O)NC(=O)[C@H](CCCCN)NC(=O)[C@H](Cc2ccccc2)NC1=O [CP14] ({CH2CO}-[dY]FYVWNPFVFKCGS[βAla][βAla]RK(5FAM)-NH2; thioether N-12; C-terminus assumed) | preference for the OF conformer |
